Test [1] relates to monoclonal antibody 5-21-3. The test can be described thus: Immuno-dot blot of synthetic peptides with 5-21-3. It counts as binding, mouse. The settings on record: 25 ug/ml 5-21-3. From the text: The western Blot procedure described in Example 1 was employed for development of immuno-dot blots using synthetic peptides, except that synthetic peptides were fixed to nitrocellulose by direct application using Drummond lambda pipettes, and air dried prior to blocking with 20% fetal calf serum in PBS (pH 7.4). Monoclonal IgG 5-21-3, and a second anti-HIV I gp41 monoclonal antibody (IgG) 10-15-63 (which recognizes an epitope distinct and separate from the epitope recognized by 5-21-3), were purified from mouse ascites using Protein A-Sepharose, and employed at the concentrations indicated.
Immuno-dot blot results are illustrated in Figure 5 where synthetic peptides were spotted onto nitrocellulose as follows:(A) 10 ug P58-130, (B) 10 ug P67-154,(C) 6 ug P121-154 and (D) 9 ug of P126-162. The strips were reacted with 25 ug/ml monoclonal antibody 5-21-3, 25 ug/ml monoclonal antibody 10-15-63, 25 ug/ml normal mouse IgG, 2% mouse (M) anti-rp41 serum, 2% normal mouse serum (NMS), 2% Rabbit (R) anti-P58-130 serum, or 2% normal rabbit serum (NRS).

The test system of test [2] is monoclonal antibody 5-21-3. Nature of the test: Immunoprecipitation of 125I synthetic peptides by 5-21-3. It counts as binding, mouse. Here is the method: (§1) Synthetic peptides were radiolabeled with¹²⁵I (Amersham) by the chloramine T method (W.M. Hunter, "Radioimmunoassay" in D.M. Weir, Ed., Handbook of Experimental Immunology, [Blackwell Scientific Publications, 1973]). Generally, 2-6 ul of 100 mCi/ml ¹²⁵I were added to 10-50 ug of peptide in PBS, pH 7.4. Approximately 10 ug of freshly prepared (1 mg/ml in PBS) chloramine T were added to the mixture maintained at 4°C. After 5 min., [¹²⁵I]peptide was separated from free ¹²⁵I by passage of the reaction mixture through a 3 ml (bed volume) column of Biogel P-6 or P-2, as required. Fractions (200 ul each) containing [¹²⁵I]peptide were pooled and diluted into PBS containing 20% fetal calf serum. Rough estimations of¹²⁵I cpm bound to peptide were made by acid precipitation. An aliquot of labeled peptide was diluted into 1 ml of ice cold 50% trichloroacetic acid (TCA) overlaying a 0.45 um filter (made of mixed cellulose esters) set on a scintered glass filter connected to a vacuum apparatus. Precipitated protein was fixed onto the filter by application of vacuum, and filters were washed with ice-cold 50% TCA. Background cpm adhering non-specifically to the filter were estimated by repeating the procedure using a non-precipitating buffer. Amounts of peptide, ¹²⁵I, chloramine T, and composition of column eluting buffer were subject to change depending on conditions required to maintain solubility of each peptide.
Synthetic peptides radiolabeled with¹²⁵I were diluted into PBS (pH 7.4) containing 0.1% Triton X-100 (or other detergents where indicated) and 1.0% BSA, to yield approximately 2.5-5 X 10⁵ acid-precipitable cpm per 0.1 ml. Purified monoclonal IgG 5-21-3 and 10-15-63 were employed in the assay. Monoclonal antibodies were diluted into PBS containing 0.1% Triton X-100 (or other detergents where indicated), 1.0% BSA, and 2% normal mouse serum as a carrier immunoglobulin. Immune rabbit serum (anti-P58-130) was diluted appropriately into the same buffer except that normal rabbit serum (2%) was substituted for normal mouse serum as the carrier immunoglobulin. A reaction mixture comprising 0.1 ml [¹²⁵I] peptide (5 X l0⁵ cpm/0.1 ml) and 0.1 ml diluted antibody was incubated 1 hr at […], followed by addition of 0.1 ml of a precipitating antibody, either goat anti-mouse IgG, or goat anti-rabbit IgG, corresponding to the primary antibody. The reaction mixture was incubated 1 hr at […] and then overnight at 4°C. The precipitate was collected by centrifugation (2,000 x g, 5 min., 20°C), washed once in PBS containing 0.1% Triton X-100 and 1.0% BSA, collected by centrifugation, and counted in an LKB 128 gamma counter. […]

In test [3] the test system is monoclonal antibody 10-15-63. The test can be described thus: Immunoprecipitation of 125I synthetic peptides by 10-15-63. It is filed as binding, mouse. Particulars: 10 ug/0.2 ml reaction mixture; 0.1% Triton X-100, 1.0% BSA, carrier serum; second antibody precipitation. The method, then:
Synthetic peptides were radiolabeled with¹²⁵I (Amersham) by the chloramine T method (W.M. Hunter, "Radioimmunoassay" in D.M. Weir, Ed., Handbook of Experimental Immunology, [Blackwell Scientific Publications, 1973]). Generally, 2-6 ul of 100 mCi/ml ¹²⁵I were added to 10-50 ug of peptide in PBS, pH 7.4. Approximately 10 ug of freshly prepared (1 mg/ml in PBS) chloramine T were added to the mixture maintained at 4°C. After 5 min., [¹²⁵I]peptide was separated from free ¹²⁵I by passage of the reaction mixture through a 3 ml (bed volume) column of Biogel P-6 or P-2, as required. Fractions (200 ul each) containing [¹²⁵I]peptide were pooled and diluted into PBS containing 20% fetal calf serum. Rough estimations of¹²⁵I cpm bound to peptide were made by acid precipitation. […]
(§2) Synthetic peptides radiolabeled with¹²⁵I were diluted into PBS (pH 7.4) containing 0.1% Triton X-100 (or other detergents where indicated) and 1.0% BSA, to yield approximately 2.5-5 X 10⁵ acid-precipitable cpm per 0.1 ml. […] The precipitate was collected by centrifugation (2,000 x g, 5 min., 20°C), washed once in PBS containing 0.1% Triton X-100 and 1.0% BSA, collected by centrifugation, and counted in an LKB 128 gamma counter. […]

Test [4] relates to Rabbit (R) anti-P58-130 serum. The test can be described thus: Immunoprecipitation of 125I synthetic peptides by rabbit anti-P58-130 serum. It is filed as binding. Here is the method: as §1
as §2, with “ml. Purified monoclonal IgG 5-21-3 and 10-15-63 were employed in the assay. Monoclonal antibodies were diluted into PBS containing 0.1% Triton X-100 (or other detergents where indicated), 1.0% BSA, and 2% normal mouse serum as a carrier immunoglobulin.” for “ml.”

The subject of test [5] is Binding of Antibody 5-21-3 to rp41. Nature of the test: Binding inhibition assay: peptides blocking 5-21-3 binding to rp41. The arrangement: species or system mouse. The method, then: Additional evidence for the conformational nature of the 5-21-3 epitope was obtained using binding inhibition studies, in which synthetic peptides were ranked for their ability to inhibit binding of 5-21-3 to rp41. First, the Fab dimer of an anti-gp41 monoclonal antibody was prepared by conventional methods (Goding et al., supra). Then 100 ul of a 1 mg/ml solution of the Fab dimer in bicarbonate buffer (pH 9.6) was coated onto Immulon II microtiter plates for 1 hr at 37°C. After washing with PBS containing 0.05% Tween 20, the plates were overcoated with 200 ul of 1.0% ovalbumin in bicarbonate buffer (pH 9.6) for 1 hr at 30°C. After washing, 100 ul of rp41 enriched E. coli lysate (as described in Example 3), diluted appropriately in PBS containing 0.05% Tween 20, were allowed to bind to the Fab dimer for 2 hr at 30°C. The plates were washed and stored at 4°C.
Intact monoclonal antibody 5-21-3 IgG (purified from tissue culture fluid supporting growth of the cloned cell line 5-21-3) was titrated against the bound rp41 on the plate, and an antibody concentration was selected which yielded an A₄₉₂ value of 2.0-3.0. Usually, 0.4 pmol (0.06 ug) of 5-21-3 IgG per microtiter well was employed in these assays. Stock solutions of 5-21-3 IgG were prepared in PBS containing 0.1% Triton X-100 and 0.1% SDS. Dilutions of synthetic peptides were made in the same buffer (SDS was included in these experiments to keep peptides soluble at high concentrations).
The binding inhibition assay was performed by combining 0.15 ml of 1.2 ug/ml 5-21-3 antibody stock solution with 0.15 ml of peptide at a selected peptide concentration, and incubating the reaction mixture 1 hr at room temp. Then 0.1 ml aliquots of each reaction mixture were added to each of two wells in the microtiter tray. After a 1 hr incubation at room temp., the plates were washed, and HRPO conjugated Goat anti-mouse IgG Fc was added for 1 hr at room temp. The plates were washed, and addition of OPD for color development identified the relative amounts of 5-21-3 bound to rp41 in the microtiter wells. The reaction was stopped by addition of 100 ul of 1N H₂S0₄, and the plates were read on a Dynatech II microtiter plate reader.

The mark [6] stands for this setting: 10 ug/0.2 ml reaction mixture, 0.1% Triton X-100, 1.0% BSA, carrier serum, second antibody precipitation.
[7] abbreviates: serum 20 ul/0.2 ml reaction mixture, 0.1% Triton X-100, 1.0% BSA, carrier serum, second antibody precipitation.

These results are taken from patent publication EP0335134B1, “Mouse monoclonal antibody to human immunodeficiency virus gp41 protein” (ABBOTT LABORATORIES, priority 1988, dated 1989).

On to “P121-154: synthetic peptide corresponding to gp41 amino acids 121-154 (DREINNYTSLIHSLIEESQNQQEKNEQELLELDK; Transmembrane protein gp41; UniProt P04578 632-665, looked up, fragment) [Peptide P121-154]”, for which the “dot blot reactivity with antibody 5-21-3” value in test [1] (mild washing procedures) is on record as “faint, diffuse reaction”. Also, the “dot blot reactivity with antibody 5-21-3” value in test [1] (peptide spotted on nitrocellulose) is reported as “difficult to demonstrate”. In addition, in test [2] (setting [6]), the “SPECIFIC PRECIPITATION (CPM) 5-21-3” value was 40,717 CPM and the “x-fold increase of specific precipitation over non-specific precipitation, 5-21-3” value came to 31 x-fold. The “binding of the peptide by antibody 5-21-3” value in test [2] (in words, summary of Table 4) was “provided an epitope which was recognized by 5-21-3”. For the same substance, the “5-21-3 concentration required to demonstrate reactivity against the peptide” value in test [2] (summary of Table 5) is “at least 100 ug/ml”. Further, in test [3], the “SPECIFIC PRECIPITATION (CPM) 10-15-63” value was 371 CPM and the “x-fold increase of specific precipitation over non-specific precipitation, 10-15-63” value stood at 1.3 x-fold. For the same substance, the “precipitation by rabbit anti-P58-130” value in test [4] (in words, summary of Table 4) is reported as “strong precipitator”. In addition, in test [4] (setting [7]), the “SPECIFIC PRECIPITATION (CPM) RαP58-130” value is reported as 310,419 CPM and the “x-fold increase of specific precipitation over non-specific precipitation, RαP58-130” value turned out to be 24 x-fold. In test [5], the “binding inhibition activity restored by flanking sequence, relative to P131-154” value is listed as 20-65 fold and the “binding inhibition activity, fold less active than P67-154” value stood at 20 fold. In addition, the “Molar Ratio” value in test [5] (at 50% inhibition of 5-21-3 binding, mean of two experiments) is recorded as 1,494 pmoles peptide/pmoles 5-21-3. Moreover, the “inhibition of 5-21-3 binding to rp41” value in test [5] (in words (Fig. 6, Table 6)) is “potent inhibitor”.
